Key:
rabbit sclera [1] = assay: Biomechanical testing of rabbit sclera treated ex vivo, NIR illumination through the anterior eye segment; conditions: 20 min incubation
Procedure: (§1) The corneal and scleral strips were clamped horizontally, at a distance of 6 mm, between the jaws of a microcomputer-controlled biomaterial tester (Minimat, Germany) with a 200 Newton force cell (FIG. 1). Controlled tightening of screws was performed with a calibrated screwdriver at a preset torque of 9 cN.m (Torqueleader, England). The strain was increased linearly at a rate of 1.0 mm/min and was measured up to tissue rupture. Young's modulus was calculated by the testing machine. Ultimate stress and Young's modulus were expressed in Mega Pascal (MPa) units.
Six eyes of three rabbits were enucleated. The posterior eye area up to the equatorial line was incubated using an eye cap with 2.5 mg/ml solution of WST11 in saline pH 7.3 for 20 minutes and then illuminated by NIR illumination through the anterior cornea using a diode laser (755 nm, 0.5 W) and three mirror fundus lens (FIGS. 18A-18C) for 30 minutes. Strips of sclera were cut and tested as described in Materials and Methods.

rabbit sclera [2] = assay: Depth of penetration into the rabbit sclera (fluorescence microscopy); assay type: in vitro ADME; conditions: ex vivo using eye cap and in-situ using Merocel sponge
Procedure: Test compound solution was applied in the supero-temporal or infero-nasal (alternating) quadrant of the rabbit by a curved plastic or metal glide with attached Merocel® sponge connected by a tube that ran along the glide outside. The glide was inserted through a conjunctival opening at the limbus (see FIGS. 17A-17B). After placing the glide attached to the sclera, the tube was connected to a syringe or pump, and the test compound reservoir was injected to impregnate the sclera. Application of the photosensitizer was continued for 10 or 30 minutes. Afterwards, the glide with the Merocel® was withdrawn.
The treated scleral area and the opposing control sclera were trephined with a round skin trephine of 8-mm diameter and scissors and immediately frozen. Sagittal slices of 20 microns were dissected with a cryomicrotome at the central area of the scleral button. The fluorescence intensity at 755 nm was recorded upon excitation at 740 nm using a fluorescence microscope (Olympus, Japan).

[3] = tested on: rabbit cornea keratocytes; assay: Staining for apoptosis (TUNEL assay); assay type: in vivo; conditions: one day postoperatively
Procedure: For apoptosis detection, rabbits were euthanized one day post Bchl-S or Bchl-D treatment. Their corneas were removed, fixated in 4% formaldehyde and embedded in paraffin. […] central sections were prepared from the corneas, placed on microscope slides and deparaffinized. Peroxidase-based terminal deoxyribonucleotidyl transferase-mediated dUTP-digoxigenin nick and labeling (TUNEL) assay was performed according to the manufacturer's instructions (Apop-Tag assay, Chemicon, Merck Millipore, Darmstadt, Germany).

rabbit cornea [4] = assay: Stress-strain measurements of in-vivo treated corneas
Procedure: (§2) Twelve to twenty five weeks old rabbits (2.5-3 Kg weight) were used. They were anesthetized by intramuscular (i.m.) injection of 35 mg/kg ketamine (Rhone Merieux, Lyon, France) and 5 mg/kg xylazine (Vitamed, Binyamina, Israel). Usually, 16 rabbits were assigned for bacteriochlorophyll treatment. After de-epithelialization, one eye of each rabbit was treated topically with a test compound in saline for 10, 20 and 30 minutes using an eye cap (12 mm in diameter), followed by NIR illumination for 10, 20 or 30 minutes (755 nm, 10 mW/cm^2). The other eye served as untreated control. To prevent exposure of the limbal stem cells, the illuminated area was restricted by an aluminum foil mask with an 8 mm diameter central opening. To determine the role of dextran, 12 rabbits were divided into 4 treatment groups of 3 rabbits each: group 1, the Bchl-S group, was treated with a saline solution of a bacteriochlorophyll derivative; group 2, the Bchl-D group, treated with a bacteriochlorophyll-dextran solution. Both groups were incubated with the test compound for 20-min, followed by NIR illumination (755 nm, 10 mW/cm^2) for 30 minutes. Group 3, the RF group, was treated with riboflavin without dextran, and group 4, the RF-D group was treated with RF-dextran solution (RF-D). Both groups were incubated with RF or RF-D solutions for 30-minute, followed by UVA illumination (370 nm, 3 mW/cm^2) for 30 minutes. An ophthalmic ointment containing dexamethasone 0.1%, neomycin and polymixin B (Maxitrol®, Alcon, Belgium) was applied on the treated eyes once daily for two weeks. Four weeks after the treatment the rabbits were sacrificed, and the corneoscleral rings were removed and placed on paraffin hemisphere buttons of matching shape to assure accurate sectioning without stretching the tissue. Corneal strips, 4±0.2 mm in width, were cut from the epithelial side, as described above in the ex-vivo section. The corneal strips were transferred to the biomechanical tester without delay.
as §1
Corneas of 16 live rabbits were pretreated for 10 (n=4), 20 (n=6) and 30 (n=6) minutes with WST11-S (2.5 mg/ml). NIR illumination (755 nm, 10 mW/cm^2) was then delivered for 30 minutes. […] Results are shown in FIGS. 9A-9B, and in Tables 1 and 2.
(§3) To determine the role of dextran, the photochemical treatment with a formulation of WST11 2.5 mg/ml containing 20% dextran T-500 (WST11-D) was examined. Six rabbits were examined: 3 rabbits were pretreated for 20 min with WST11-S solution and 3 with WST11-D solution, followed by NIR illumination for 30 minutes. Additional 4 rabbits were treated with RF (n=2) or RF-D (n=2) for 30 minutes, followed by 30-min UVA irradiation (370 nm, 3 mW/cm^2).

rabbit cornea [5] = assay: Clinical course after in vivo cornea treatment (edema, epithelial healing, haze); conditions: for epithelial haze / time to healing of corneal epithelial defect: dipotassium salt
Procedure: as §2, §3

[6] = 20 min pretreatment, saline or 20% dextran T-500 formulation, 30 min NIR
[7] = 30 days, 30 min incubation, 30 min NIR, vs untreated fellow eyes, dipotassium salt
[8] = 30 days, 30 min incubation, 30 min NIR, vs untreated fellow eyes, listed as WST11-S, dipotassium salt
[9] = one month, 10 min incubation, 30 min NIR
[10] = one month, 20 min incubation, 30 min NIR
[11] = in vivo after photosensitizer + illumination
[12] = in vivo after photosensitizer + illumination, listed as WST11-S

**Q.** How did the “increase in Young's modulus” value (rabbit sclera [1]; NIR through anterior cornea) turn out when CCC1C2=Cc3c(C)c(C(=O)NCCS(=O)(=O)[O-])c4[n]3[Pd][n]3c(c(C)c(C(C)=O)c3=CC(=N2)C1C)=CC1=NC(=C4CC(=O)OC)C(CCC(=O)[O-])C1C.[K+].[K+] (centres unmarked) [WST11, Palladium 3^1-oxo-15-methoxycarbonylmethyl-rhodobacteriochlorin 13^1-(2-sulfoethyl)amide dipotassium salt] was run?
**A.** 54%

**Q.** And the “increase in maximal stress” value (rabbit sclera [1]; NIR through anterior cornea)?
**A.** 42%

**Q.** And the mean maximal stress (rabbit sclera [1]; NIR through anterior cornea 30 min, control 4.65±1.15)?
**A.** 6.59±1.32 MPa

**Q.** And the “mean Young's modulus” value (rabbit sclera [1]; NIR through anterior cornea 30 min, control 25.25±5.30)?
**A.** 38.83±6.89 MPa

**Q.** And the penetration into sclera (rabbit sclera [2])?
**A.** penetrated into sclera tissue

**Q.** What about the “location of TUNEL-positive keratocytes” value [3] of the same molecule?
**A.** outer ½ of anterior stroma

**Q.** And the “increase in Young's modulus compared with untreated corneas of fellow eyes” value (rabbit cornea [4]; [6])?
**A.** approximately two-fold increase

**Q.** And the “increase in mean ultimate stress compared with untreated corneas of fellow eyes” value (rabbit cornea [4]; [6])?
**A.** approximately two-fold increase

**Q.** And the “Mean Young's Modulus Intensity” value (rabbit cornea [4]; 30 days, 30 min incubation 2.5 mg/ml, 30 min NIR)?
**A.** 32 ± 3.6 MPa

**Q.** What about the “Mean ultimate stress Intensity” value (rabbit cornea [4]; 30 days, 30 min incubation 2.5 mg/ml, 30 min NIR 755 nm 10 mW/cm^2) of the same molecule?
**A.** 6.91 ± 0.53 MPa

**Q.** What about the “Mean Young's Modulus Increase %” value (rabbit cornea [4]; [7]) of the same molecule?
**A.** 174%

**Q.** What about the “Mean ultimate stress Increase %” value (rabbit cornea [4]; [7]) of the same molecule?
**A.** 111%

**Q.** What about the “Mean Young's Modulus Increase %” value (rabbit cornea [4]; [8]) of the same molecule?
**A.** 173%

**Q.** And the “Mean ultimate stress Increase %” value (rabbit cornea [4]; [8])?
**A.** 126%

**Q.** And the “Mean Young's Modulus Intensity” value (rabbit cornea [4]; [9])?
**A.** 13.9 ± 3.9 MPa

**Q.** What about the “Mean ultimate stress Increase %” value (rabbit cornea [4]; [9]) of the same molecule?
**A.** 45%

**Q.** And the “Mean ultimate stress Intensity” value (rabbit cornea [4]; [9])?
**A.** 4.51 ± 1.85 MPa

**Q.** What about the “Mean Young's Modulus Increase %” value (rabbit cornea [4]; one month, 10 min incubation, 30 min NIR, dipotassium salt) of the same molecule?
**A.** 9%

**Q.** And the “Mean Young's Modulus Increase %” value (rabbit cornea [4]; one month, 10 min incubation, 30 min NIR, listed as WST11-S, dipotassium salt)?
**A.** 10%

**Q.** What about the “Mean Young's Modulus Increase %” value (rabbit cornea [4]; [10]) of the same molecule?
**A.** 79%

**Q.** And the “Mean Young's Modulus Intensity” value (rabbit cornea [4]; [10])?
**A.** 22.7 ± 3.82 MPa

**Q.** And the “Mean ultimate stress Increase %” value (rabbit cornea [4]; [10])?
**A.** 113%

**Q.** And the “Mean ultimate stress Intensity” value (rabbit cornea [4]; [10])?
**A.** 6.66 ± 0.67 MPa

**Q.** And the “time to clearing of corneal edema” value (rabbit cornea [5]; [11])?
**A.** 5 days

**Q.** And the epithelial haze (rabbit cornea [5]; [11])?
**A.** without haze development

**Q.** And the “time to healing of corneal epithelial defect” value (rabbit cornea [5]; [11])?
**A.** 7 to 9 days

**Q.** What about the epithelial haze (rabbit cornea [5]; [12]) of the same molecule?
**A.** some corneas demonstrating epithelial haze

**Q.** What about the “time to healing of corneal epithelial defect” value (rabbit cornea [5]; [12]) of the same molecule?
**A.** 10 to 14 days

**Q.** And the “corneal edema after treatment, duration” value (rabbit cornea [5]; in vivo, saline solution/NIR)?
**A.** one week
